Values quoted from earlier work, collected in publication PMC7388056 (Biomacromolecules, 2020).

Test system: integrins

Substance: arginine–glycine–aspartic acid [RGD]
- effectiveness relative to parent proteins, in words: orders-of-magnitude less effective than its parent proteins
